Tests used:
HEK293 cells = test: Signaling in HEK293 cells (immunoblot); assay type: cell-based, human; conditions: for inhibition of imidazole propionate-induced phosphorylation of p62 and S6K1: 10 μM, 30 min pretreatment, ImP 100 μM 1 h
Description: (§1) Snap-frozen liver and harvested cells were lysed in buffer containing 50 mM Tris-HCl (pH 7.4), 150 mM NaCl, 1 mM EDTA, 1 mM Na3VO4, 20 mM NaF, 10 mM glycerophosphate, 1 mM PMSF, 10% glycerol, 1% Triton X-100 and protease inhibitor cocktail. For immunoprecipitation, the cell lysates were obtained in 0.3% CHAPS-containing lysis buffer, sonicated and centrifuged at 20,000 g for 15 min at 4° C., and the supernatant was incubated with 20 μl of anti-FLAG beads (Sigma) at 4° C. for 4 h under gentle agitation.
HEK293 cells (ATCC CRL-1573) were grown and maintained in high-glucose (4.5 g/l glucose) DMEM with 10% (v/v) FBS. […] 24 h after transfection (with plasmids or siRNA as indicated), HEK293 cells cultured in poly-L-lysine-coated 60 mm dishes were rinsed twice with DMEM without FBS and incubated in serum-free DMEM for 18 h. HEK293 cells were then washed once with EBSS and incubated in EBSS for 1 h.

p38α/p38β = conditions: cited from earlier work
p38γ/p38δ = conditions: cited from earlier work
primary hepatocytes = test: Insulin signaling in primary hepatocytes (immunoblot); assay type: cell-based, mouse; conditions: rapamycin 20 nM, Torin 1 50 nM, ImP 100 μM
Description: as §1
Primary hepatocytes were isolated from C57BL/6J mice by digesting liver with perfusion of collagenase type IV as described previously. After perfusion, 16×10^5 cells were plated on collagen-coated 60 mm dishes in Dulbecco's modified Eagle's medium (DMEM)/F12 supplemented with fetal bovine serum (FBS), penicillin/streptomycin and 100 nM dexamethasone. After 4 h, the medium was changed to DMEM/F12 containing penicillin/streptomycin.

[1] = target: recombinant p62 (Abcam, ab95320), Q13501

In the case of `Cc1ccc(-n2nc(C(C)(C)C)cc2NC(=O)Nc2ccc(OCCN3CCOCC3)c3ccccc23)cc1` [BIRB796, 1-(5-tert-butyl-2-p-tolyl-2H-pyrazol-3-yl)-3-[4-(2-morpholin-4-yl-ethoxy)naphthalen-1-yl]urea], the “inhibition of imidazole propionate-induced phosphorylation of p62 and S6K1” value (HEK293 cells; amino acid-deprived HEK293) is given as “inhibited”, the “inhibition of p38α/p38β” value (p38α/p38β) is given as “inhibits the entire p38 subfamily” and the “inhibition of p38γ/p38δ” value (p38γ/p38δ) is given as “inhibits the entire p38 subfamily”.

For `CC(C)C[C@H](N)C(=O)O` [Leucine, reference compound], the S6K1 phosphorylation (HEK293 cells; HEK293, after only 15 min, transient) was “increased” and the “time to mTORC1 activation” value (HEK293 cells; absence of amino acids) was ≤ 15 min.

In the case of `NC1(c2ccc(-c3nc4ccn5c(=O)[nH]nc5c4cc3-c3ccccc3)cc2)CCC1` [MK2206, reference compound], the “effect on imidazole propionate-induced Akt activation” value (HEK293 cells) is reported as “efficiently blocked”, the “effect on imidazole propionate-induced S6K1 phosphorylation” value (HEK293 cells; absence of amino acids) is reported as “did not affect” and the “effect on imidazole propionate-induced S6K1 phosphorylation” value (HEK293 cells; presence of amino acids) is reported as “inhibition”.

For `Oc1ccc(-c2nc(-c3ccncc3)c(-c3ccc(F)cc3)[nH]2)cc1` [SB202190], the “inhibition of imidazole propionate-induced phosphorylation of p62 and S6K1” value (HEK293 cells; amino acid-deprived HEK293) is given as “not” and the “inhibition of p38α/p38β” value (p38α/p38β) is given as “inhibited”.

For `N[C@@H](Cc1c[nH]cn1)C(=O)O` [histidine, reference compound], the “phosphorylation of p62 or S6K1” value (HEK293 cells; amino acid-deprived HEK293, 100 μM for 1 h) was “neither”.

For `CCC(=O)N1CCN(c2ccc(-n3c(=O)ccc4cnc5ccc(-c6cnc7ccccc7c6)cc5c43)cc2C(F)(F)F)CC1` [torin 1, 1-[4-[4-(1-oxopropyl)-1-piperazinyl]-3-(trifluoromethyl)phenyl]-9-(3-quinolinyl)-benzo[h]-1,6-naphthyridin-2(1H)-one, reference compound], the “effect on imidazole propionate-induced S6K1 phosphorylation” value (primary hepatocytes) was “reversed” and the “inhibition of imidazole propionate-induced reduction of IRS” value (primary hepatocytes) was “inhibited”.

With “insulin: insulin from Sigma-Aldrich, used at 5 nM” the “mTORC1 activation, as measured by S6K1 phosphorylation” value (HEK293 cells; HEK293, insulin 5 nM, absence of amino acids or imidazole propionate) was “did not lead to mTORC1 activation”.

B1: recombinant p38γ (Abcam, ab125651) (protein)
chain: MSSPPPARSGFYRQEVTKTAWEVRAVYRDLQPVGSGAYGAVCSAVDGRTGAKVAIKKLYRPFQSELFAKRAYRELRLLKHMRHENVIGLLDVFTPDETLDDFTDFYLVMPFMGTDLGKLMKHEKLGEDRIQFLVYQMLKGLRYIHAAGIIHRDLKPGNLAVNEDCELKILDFGLARQADSEMTGYVVTRWYRAPEVILNWMRYTQTVDIWSVGCIMAEMITGKTLFKGSDHLDQLKEIMKVTGTPPAEFVQRLQSDEAKNYMKGLPELEKKDFASILTNASPLAVNLLEKMLVLDAEQRVTAGEALAHPYFESLHDTEDEPQVQKYDDSFDDVDRTLDEWKRVTYKEVLSFKPPRQLGARVSKETPL
In the case of B1, the “p62 phosphorylation (T269 and S272), in vitro kinase assay” value [1] is reported as “p62 phosphorylation, at T269 and S272, was induced by p38γ in the presence of 50 µM ATP, which was further increased with 200 µM ATP”.

— patent publication US20190369122A1, “METABOLIC DISORDERS” (priority 2016, published 2019)
